# Assay results published in patent US20200197409A1, “HEPATITIS B VIRUS SURFACE ANTIGEN INHIBITOR” (FUJIAN COSUNTER PHARMACEUTICAL CO., LTD., priority 2017, published 2020).
# Experiments:
# CYP3A4-M = target: T1, CYP3A4-M (Homo sapiens, UniProt P08684); test: Inhibition of cytochrome P450 isoenzyme in human liver microsomes; type: in vitro ADME
# T1 construct: from tissue; host or cells: human liver microsomes
# Method: (§1) The inhibitory effect of the test compound on different subtypes of human cytochrome P450 isoenzyme was determined. Working solutions of the test compound, standard inhibitor (100×final concentration) and a mixed substrate were prepared. Microsomes frozen in a −80° C. refrigerator were thawed. 2 μL of test compound and the standard inhibitor solution were added into the corresponding wells, while 2 μL of the corresponding solvent was added into the non-inhibitor control well (NIC) and the blank control well (Blank). 20 μL of the mixed substrate solution was added into the corresponding wells except for the Blank well (20 μL of PB was added into the Blank well). Human liver microsomes solution was prepared (it was put back to the refrigerator immediately after use and the date was marked) and 158 μL of human liver microsomes solution were added into all of the wells immediately. The sample plate was pre-incubated under a 37° C. water bath, during which coenzyme factor (NADPH) solution was prepared immediately. After 10 minutes, 20 μL of coenzyme factor (NADPH) solution was added into all of the wells. After the sample plate was shaken evenly, it was incubated under a 37° C. water bath for 10 minutes. 400 μL of cold acetonitrile solution (the internal standard was 200 ng/mL Tolbutamide and Labetalol) was added to terminate the reaction at the corresponding time. After the sample plate was well-mixed, it was centrifuged at 4,000 rpm for 20 minutes to precipitate the protein. 200 μL of the supernatant was collected and added to 100 μL of water, and subjected to LC/MS/MS measurement after being shaken evenly.
# CYP2D6 = target: T2, CYP2D6 (Homo sapiens, UniProt P10635); test: as above; type: in vitro ADME
# T2 construct: from tissue; host or cells: human liver microsomes
# T2 sequence (P10635 whole entry): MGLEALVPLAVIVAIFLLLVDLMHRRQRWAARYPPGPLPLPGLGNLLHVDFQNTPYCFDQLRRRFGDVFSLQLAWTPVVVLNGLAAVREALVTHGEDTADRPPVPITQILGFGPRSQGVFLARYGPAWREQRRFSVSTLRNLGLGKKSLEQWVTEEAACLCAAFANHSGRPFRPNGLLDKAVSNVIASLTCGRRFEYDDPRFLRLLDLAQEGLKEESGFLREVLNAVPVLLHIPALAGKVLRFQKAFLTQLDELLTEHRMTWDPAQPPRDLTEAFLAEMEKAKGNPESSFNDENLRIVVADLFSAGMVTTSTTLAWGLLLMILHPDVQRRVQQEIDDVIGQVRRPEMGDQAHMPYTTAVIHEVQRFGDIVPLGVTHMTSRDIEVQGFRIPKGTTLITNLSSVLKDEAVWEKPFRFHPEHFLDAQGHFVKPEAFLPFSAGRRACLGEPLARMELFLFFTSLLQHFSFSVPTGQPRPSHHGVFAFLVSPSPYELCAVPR
# Method: as §1
# CYP2C19 = target: T3, CYP2C19 (Homo sapiens, UniProt P33261); test: as above; type: in vitro ADME
# T3 construct: from tissue; host or cells: human liver microsomes
# T3 sequence (P33261 whole entry): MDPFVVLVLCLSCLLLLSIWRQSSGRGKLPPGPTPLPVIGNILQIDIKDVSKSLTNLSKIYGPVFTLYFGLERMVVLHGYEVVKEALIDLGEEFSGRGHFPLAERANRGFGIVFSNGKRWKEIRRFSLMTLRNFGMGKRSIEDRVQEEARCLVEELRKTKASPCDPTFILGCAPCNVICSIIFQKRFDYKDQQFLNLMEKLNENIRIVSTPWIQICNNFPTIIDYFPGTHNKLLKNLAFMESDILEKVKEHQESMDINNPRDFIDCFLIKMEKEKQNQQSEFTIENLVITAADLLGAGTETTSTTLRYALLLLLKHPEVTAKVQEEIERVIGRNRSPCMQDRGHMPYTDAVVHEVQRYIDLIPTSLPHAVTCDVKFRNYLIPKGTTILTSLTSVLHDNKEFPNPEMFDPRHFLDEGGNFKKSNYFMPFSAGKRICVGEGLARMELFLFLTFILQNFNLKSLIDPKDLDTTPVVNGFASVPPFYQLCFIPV
# Method: as §1
# CYP1A2 = target: T4, CYP1A2 (Homo sapiens, UniProt P05177); test: as above; type: in vitro ADME
# T4 construct: from tissue; host or cells: human liver microsomes
# T4 sequence (P05177 1-516): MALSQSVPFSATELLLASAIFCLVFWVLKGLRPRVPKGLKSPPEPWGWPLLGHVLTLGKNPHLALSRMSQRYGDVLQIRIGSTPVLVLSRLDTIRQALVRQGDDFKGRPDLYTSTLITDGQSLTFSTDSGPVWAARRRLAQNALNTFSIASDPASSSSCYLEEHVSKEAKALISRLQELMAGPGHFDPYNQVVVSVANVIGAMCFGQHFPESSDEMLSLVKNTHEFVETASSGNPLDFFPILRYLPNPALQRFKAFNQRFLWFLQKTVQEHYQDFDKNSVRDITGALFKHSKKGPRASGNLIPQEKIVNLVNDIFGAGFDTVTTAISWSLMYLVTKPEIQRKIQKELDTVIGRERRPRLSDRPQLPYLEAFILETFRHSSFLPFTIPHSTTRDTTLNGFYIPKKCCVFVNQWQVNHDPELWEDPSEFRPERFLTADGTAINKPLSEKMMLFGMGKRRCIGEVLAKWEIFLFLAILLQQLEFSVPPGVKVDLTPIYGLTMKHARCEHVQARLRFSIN
# Method: as §1
# CYP2C9 = target: T5, CYP2C9 (Homo sapiens, UniProt P11712); test: as above; type: in vitro ADME
# T5 construct: from tissue; host or cells: human liver microsomes
# T5 sequence (P11712 whole entry): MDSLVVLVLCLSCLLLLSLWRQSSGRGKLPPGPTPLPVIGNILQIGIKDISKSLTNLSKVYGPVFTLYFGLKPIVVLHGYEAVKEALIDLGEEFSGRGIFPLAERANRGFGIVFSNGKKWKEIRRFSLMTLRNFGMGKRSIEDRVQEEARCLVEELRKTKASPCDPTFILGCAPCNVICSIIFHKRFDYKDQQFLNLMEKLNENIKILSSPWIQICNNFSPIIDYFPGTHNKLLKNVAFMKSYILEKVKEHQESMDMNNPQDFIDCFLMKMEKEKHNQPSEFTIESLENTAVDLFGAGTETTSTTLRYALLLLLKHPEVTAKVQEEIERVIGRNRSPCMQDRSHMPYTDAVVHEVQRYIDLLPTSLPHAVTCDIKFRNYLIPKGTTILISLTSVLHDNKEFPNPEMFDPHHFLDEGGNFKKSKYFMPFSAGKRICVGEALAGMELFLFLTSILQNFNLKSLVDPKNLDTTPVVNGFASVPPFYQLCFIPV
# Method: as §1
# [1] = 14-day pre-toxicology tolerance test on rat; type: in vivo; details: once a day for 14 days, male rats
# Method: [table] A total of 21 animals in this experiment were randomly divided into 7 groups. The animals were orally administered with the test compounds once a day for 14 consecutive days, and the toxicity was evaluated. Animal necropsy and tissue would be taken from the fixative, repaired, dehydrated, embedded, sectioned, stained and microscopically examined. These tissues included the liver, heart and lung of all animals, and spleen, stomach, duodenum, jejunum, ileum, and kidney of partial animals.
# HBV = test: In vivo pharmacodynamic study of hydrodynamic injection mouse HBV model (HDI-HBV) via tail vein; set-up: species or system Balb/c mice; details: mouse plasma
# Method: Anti-hepatitis B virus activity of the compound of the embodiment in vivo was evaluated by HDI mice model.
# Balb/c mice, 10% HP—F-CD as vehicle, test compound, RG7834, ETV (Entecavir), pAAV2-HBV 1.3mer plasmid (extracted with Qiagen EndoFree Plasmid Giga kit), main reagents including QIAamp96 DNA kit and FasStart Universal Probe Mast (ROX). The main instruments used in this experiment included centrifuge (Beckman Allegra X-15R), tissue grinder (QIAGEN-Tissue lyser II) and spectrophotometer (Thermo-NANODROP 1000).
# b) On day 0, all mice were subjected to hydrodynamic injection with HBV plasmid DNA solution via tail vein. The plasmid DNA was pre-treated with sterile physiological saline before injection and stored at 4° C. until use. Plasmid DNA solution was injected via the tail vein at a dose of 8% of the body weight of the mouse within 5 seconds.
# c) On the 1st day to the 7th day, the mice were administered with the compound or solvent by oral gavage for 7 days.
# d) On the 1st day, 3rd day and 5th day, the blood was collected from the submandibular vein of the mice, and heparin sodium was used as an anticoagulant. The blood sample was centrifuged at 7,000×g, 4° C. to prepare the plasma for the determination of HBV DNA.
# e) On the 7^h day, all mice were euthanized by CO2. The blood was collected from the heart to prepare plasma, and the liver tissue was collected. Two left hepatic lobe were isolated, the size of which was 70-100 mg, and were frozen by liquid nitrogen immediately after collection. One of the hepatic lobe was used for HBV DNA detection, and the other was used for backup.
# The content of HBsAg in the serum of the mice was determined by ELISA (enzyme linked immunosorbent assay). The experimental procedure refers to the specification of HBsAg ELISA kit.
# The inhibitory activity of the test compound on HBV replication on the mouse HDI model was determined by measuring the content of HBsAg in the plasma of the mice.
# [2] = Single dose neurotoxicity test on rats (functional observation combination test, FOB); type: in vivo; details: 24 hours after single intragastric dose of 1000 mg/kg and 300 mg/kg, male SD rats
# Method: In this experiment, SD rats were intragastrically administrated with RG7834 and Embodiment 6 in a single dose, and the potential neurobehavioral toxicities to SD rats were evaluated by functional observation combination test (FOB). A total of 25 SD male rats were used in this experiment. At the start of the administration, the animals were about 7 to 8 weeks old, males weighed between 225.50 and 285.70 g, and […]. […] The animals in the control group were administered with the menstruum. All animals were administered at a volume of 10 mL/kg, and subjected to the FOB test.
# T1 sequence (P08684 whole entry): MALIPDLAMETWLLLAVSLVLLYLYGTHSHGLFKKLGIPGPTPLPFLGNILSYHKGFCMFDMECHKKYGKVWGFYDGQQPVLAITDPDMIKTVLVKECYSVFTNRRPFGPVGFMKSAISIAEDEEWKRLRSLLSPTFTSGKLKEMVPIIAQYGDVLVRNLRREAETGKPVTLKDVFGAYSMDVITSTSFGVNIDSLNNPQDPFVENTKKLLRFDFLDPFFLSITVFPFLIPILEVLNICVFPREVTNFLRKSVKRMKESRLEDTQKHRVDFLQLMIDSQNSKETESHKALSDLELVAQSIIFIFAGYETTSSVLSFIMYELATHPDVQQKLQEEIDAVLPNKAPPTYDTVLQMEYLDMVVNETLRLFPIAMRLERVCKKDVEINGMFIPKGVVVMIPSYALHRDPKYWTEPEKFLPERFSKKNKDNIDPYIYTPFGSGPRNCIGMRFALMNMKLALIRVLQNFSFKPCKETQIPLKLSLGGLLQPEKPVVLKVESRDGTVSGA
compound,measurement,setting,value
COCCCOc1cc2c(cc1OC)-c1cc(=O)c(C(=O)O)cn1[C@H](C(C)(C)C)CO2 [Embodiment 6],IC50,CYP3A4-M,> 50 µM
same,IC50,CYP2D6,> 50 µM
same,IC50,CYP2C19,> 50 µM
same,IC50,CYP1A2,> 50 µM
same,IC50,CYP2C9,> 50 µM
same,histopathological changes associated with the test compound,[1]; high dose group (1000 mg/kg),little or mild decrease of white pulp lymphocytes in the spleen
same,histopathological changes associated with the test compound,"[1]; medium and low dose groups (300 and 100 mg/kg), heart, liver and lung examined",no histopathological changes associated with the test compound were observed
same,Log HBsAg (IU/mL) (Ave. value),"HBV; dosing time day 1, 30 mg/kg QD gavage",3.86 IU/mL
same,Log HBsAg (IU/mL) (Ave. value),"HBV; dosing time day 3, 30 mg/kg QD gavage",4.09 IU/mL
same,Log HBsAg (IU/mL) (Ave. value),"HBV; dosing time day 5, 30 mg/kg QD gavage",3.27 IU/mL
same,Log HBsAg (IU/mL) (Ave. value),"HBV; dosing time day 7, 30 mg/kg QD gavage",1.07 IU/mL
same,magnification of the pupil associated with the test compound,[2],did not appear
